≈ marks a conversion by molar mass, not a printed value.
How the values were obtained:
[1] = system: MRSA USA300; format: in vivo, mice; conditions: for improvement of wound healing compared to untreated control: 20 mg/kg on the wound once a day for seven days, wound area day 8; for bacterial burden of the wound vs untreated control: 20 mg/kg once a day for seven days; for bacterial burden of the wound vs untreated control / tissue burden of the wound, average log CFUs ± standard deviation: day 8; for tissue burden of the wound, average log CFUs ± standard deviation: topical twice a day for seven days, cephalothin 30 mg/kg, F19 20 mg/kg, vancomycin 30 mg/kg
[2] = target: AgrA-P3 complex (Staphylococcus aureus, UniProt P0A0I7); test: Electrophoretic mobility shift assay, AgrA with P3 promoter DNA; conditions: 1 nM P3 DNA, 2 μM AgrA
Chain of AgrA-P3 complex (P0A0I7 whole entry, one chain of several): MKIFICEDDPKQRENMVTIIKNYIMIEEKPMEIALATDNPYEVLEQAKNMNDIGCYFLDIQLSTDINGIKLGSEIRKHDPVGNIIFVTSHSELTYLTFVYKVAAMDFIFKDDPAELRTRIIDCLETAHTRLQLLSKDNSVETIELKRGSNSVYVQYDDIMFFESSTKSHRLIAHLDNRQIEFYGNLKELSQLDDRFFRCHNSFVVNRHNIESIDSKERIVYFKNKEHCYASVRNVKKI

[3] = Survival of insect larvae given compound in the absence of bacteria; format: in vivo, Galleria Mellonella; conditions: after 84 h
[4] = system: Bacillus anthracis Ames strain; format: cell-based
[5] = system: MRSA USA300; test: microbe, parasite or virus in culture; format: cell-based, Staphylococcus aureus; conditions: for MIC: Staphylococcus aureus, read-out: minimum inhibitory concentration (MIC), With F19 (1 μg/mL)
[6] = system: MRSE Q-15; format: cell-based, Staphylococcus epidermidis
[7] = system: MRSA USA300; test: Murine MRSA bacteremia/sepsis model
[8] = system: Streptococcus pyogenes; format: cell-based

CCCCCCc1cc(C(=O)COc2cccc(F)c2)c(O)cc1O [4f-1]
improvement of wound healing compared to untreated control [1]: 46.6% | bacterial burden of the wound vs untreated control [1]: no significant difference in the bacterial burden | inhibition of formation of the AgrA-promoter P3 complex (EMSA) ([2]; listed as F1): inhibit the formation of the AgrA-promoter P3 complex

CCCCCCc1cc(C(=O)COc2ccc(F)cc2F)c(O)cc1O [4f-12]
improvement of wound healing compared to untreated control [1]: 79.4% | bacterial burden of the wound vs untreated control [1]: no significant difference in the bacterial burden | survival of larvae in the absence of bacteria [3]: 80% | inhibition of formation of the AgrA-promoter P3 complex (EMSA) [2]: inhibit binding of AgrA to its cognate DNA | inhibition of formation of the AgrA-promoter P3 complex (EMSA) ([2]; listed as F12): inhibit the formation of the AgrA-promoter P3 complex

C[C@H]1[C@H](NC(=O)/C(=N\OC(C)(C)C(=O)O)c2csc(N)n2)C(=O)N1S(=O)(=O)O [Aztreonam]
minimum inhibitory concentration (MIC), antibiotic Alone [4]: 256 | minimum inhibitory concentration (MIC), With F19 (10 μg/mL) [4]: <0.1

CC(C)(O/N=C(\C(=O)N[C@@H]1C(=O)N2C(C(=O)[O-])=C(C[n+]3ccccc3)CS[C@H]12)c1csc(N)n1)C(=O)O [Cefazidime]
minimum inhibitory concentration (MIC), antibiotic Alone [4]: 32 | minimum inhibitory concentration (MIC), With F19 (10 μg/mL) [4]: <0.1

CC(=O)OCC1=C(C(=O)O)N2C(=O)[C@@H](NC(=O)Cc3cccs3)[C@H]2SC1 [Cephalothin, cephalothin]
tissue burden of the wound, average log CFUs ± standard deviation [1]: 7.54±0.4 log CFU | minimum inhibitory concentration (MIC), antibiotic Alone ([5]; MRSA USA300): 58 µg/mL (≈ 146 µM) | MIC [5]: 2 µg/mL (≈ 5.04 µM) | minimum inhibitory concentration (MIC), antibiotic Alone [6]: 64 | minimum inhibitory concentration (MIC), With F19 (1 μg/mL) [6]: 3 | bacterial burden in blood compared to F19-treated animals ([7]; 30 mg/kg IP twice daily): approximately the same bacterial burden levels

CCOc1ccc2ccccc2c1C(=O)N[C@@H]1C(=O)N2[C@@H]1SC(C)(C)[C@@H]2C(=O)O [Nafcillin]
minimum inhibitory concentration (MIC), antibiotic Alone ([5]; MRSA USA300): 60 µg/mL (≈ 145 µM) | MIC [5]: 1 µg/mL (≈ 2.41 µM) | minimum inhibitory concentration (MIC), antibiotic Alone ([8]; alone): 25 | minimum inhibitory concentration (MIC), With F19 (1 μg/mL) ([8]; with F19 1 μg/mL): 10

CN[C@H](CC(C)C)C(=O)N[C@H]1C(=O)N[C@@H](CC(N)=O)C(=O)N[C@H]2C(=O)N[C@H]3C(=O)N[C@H](C(=O)N[C@H](C(=O)O)c4cc(O)cc(O)c4-c4cc3ccc4O)[C@H](O)c3ccc(c(Cl)c3)Oc3cc2cc(c3O[C@@H]2O[C@H](CO)[C@@H](O)[C@H](O)[C@H]2O[C@H]2C[C@](C)(N)[C@H](O)[C@H](C)O2)Oc2ccc(cc2Cl)[C@H]1O [Vancomycin, vancomycin]
tissue burden of the wound, average log CFUs ± standard deviation [1]: 6.96±0.3 log CFU | bacterial load in blood compared to the F19-cephalothin treatment ([7]; 30 mg/kg IP twice daily): almost two orders of magnitude lower | surviving mice (of ten per group) ([7]; 30 mg/kg IP twice daily for 7 days, lethal dose 1.6×10^10 CFUs): all survived | mean bacterial load in blood compared to vehicle-treated animals ([7]; 30 mg/kg IP twice daily, day 6): four orders of magnitude lower

Penicillin
minimum inhibitory concentration (MIC), antibiotic Alone ([5]; MRSA USA300): 135 µg/mL | minimum inhibitory concentration (MIC), With F19 (1 μg/mL) ([5]; MRSA USA300, with F19 1 μg/mL): 18 µg/mL | minimum inhibitory concentration (MIC), antibiotic Alone [6]: 174 | minimum inhibitory concentration (MIC), With F19 (1 μg/mL) [6]: 34
